Data set [1] has as its system alkaline phosphatase (AP). The data set is described as follows: Trapping of the QM intermediate with Tris in solution, HPLC-MS. In kind it is biochemical. To be noted: pH 10 Tris buffer. The protocol:
To probe the mechanism of staining and quenching, an attempt was made to trap the QM intermediate formed by monofluoro QM precursor 7 in solution-phase under similar conditions to those utilized in the staining experiments (FIG. 26). QM precursor 7 was dissolved in pH 10 Tris buffer followed by addition of a catalytic amount of AP. The reaction progress was monitored by HPLC-MS (FIG. 27, panels A-C). Within 10 minutes, complete conversion to the Tris adduct 7-tris was observed (panel C).

Data set [2] deals with BCL6 on FFPE tonsil tissue. The data set is described as follows: AP-based CARD IHC with biotinylated QM precursor followed by DAB detection. The protocol: Detection 1—HRP DAB. After incubating with the AP conjugate the slides were washed with Special Stains wash (VMSI #860-015). QMP reagents were dissolved in 100 mM CHES (3-cyclo-hexylamino-ethylsulfonic acid), pH 10.0, 0.05% Brij-35. QMP turnover was achieved by adding 100 μL of AP Enhancer (VMSI #253-2182) followed by 100 μL of hapten labeled QMP and incubating at 37° C. for 16 minutes. Compound 29 is an exemplary hapten-QMP that could be used according to this method. The deposited hapten was subsequently bound by a mouse-anti-hapten-HRP conjugate (or streptavidin-HRP) (37° C.; 8 minutes), and visualized via a brown precipitate produced by HRP upon the addition of hydrogen peroxide and DAB (37° C.; 8 minutes). The DAB was toned by the addition of copper sulfate (37° C.; 4 minutes). The stained tissue sections were counterstained with modified Mayer's hematoxylin (Hematoxylin II, VMSI #790-2208) (37° C.; 4 minutes) and then incubated with Bluing Reagent (VMSI #760-2037) (37° C.; 4 minutes). The slides were then dehydrated through a graded ethanol series, cleared with xylene, and manually cover-slipped.
Both compounds utilize fluoride as the leaving group, but the reactivity of the QM derived from difluoro compound 58 should be considerably lower than monofluoro 7 due to the electronic stabilization offered by the geminal fluorine atom. […] Therefore, the difluoro QM precursor compound 58 was evaluated first for IHC staining performance on FFPE tissue using the nuclear marker BCL6 on FFPE tonsil tissue as a model system. The biotin-labeled difluoro QM precursor successfully bound to the sample as evidenced by subsequent biotin visualization using diaminobenzidine (DAB) detection. FIG. 18 provides microphotographs illustrating the detection level at varying concentrations of the difluoro QM precursor in a Tris buffer at pH=8.5 (panel A—DAB control, panel B—1 μM, panel C—10 μM and panel D—20 μM). In addition, significant amplification of signal was observed compared to the DAB control sample when on-slide concentrations of difluoro QM precursor compound 58 greater than […] were utilized.
To test the effect of pH on signal diffusion, difluoro QM precursor compound 58 was deposited as before at various pH levels within the working range for AP (7-12 with two shoulders of maximal activity at pH=8.5 and 11). The nuclear marker BCL6 on FFPE tonsil tissue was again chosen as the model. Positive staining was observed across the entire pH range, although a balance between overall signal and diffusion was seen. FIG. 19, panels A-H provide microphotographs of the detection levels of 20 µM QM precursor in Tris buffer with varying pH: panel A—DAB control; panel B pH=7.0; panel C pH=8.0; panel D pH=8.5; panel E pH=9.0; panel F pH=10.0; panel G pH=11.0; panel H pH=12.0. The diffusion appears to decrease with increasing pH. […] The level of amplification increased only as the pH rose to 8.5 and then decreased gradually over the rest of the range. This effect may be due to a combination of enzyme activity and the population of QM quenchers in the reaction media. At pH levels well below the optimal AP reaction conditions (7.0), the activity of AP was depressed, resulting in low signal. As the pH increased (8.0-8.5) but remained near the pKa of Tris (8.1), the activity of AP increased at a faster rate than the population of quenchers in the reaction media, leading to a significant increase in signal. Raising the pH further (9-10) increased the quencher population while decreasing AP activity, resulting in a decrease of signal. Although AP had maximal activity at pH 11 in Tris, a slight decrease in staining intensity was observed, most likely due to the excessively high population of quenchers that could not be overcome by the increased AP activity (raising the pH from 8.5 to 11 increases [Tris base] about 50%, with AP activity increasing by only about 20%). […]

The subject of data set [3] is Bcl2 on FFPE tonsil tissue. Description: HRP DAB amplified by QMP-biotin with different linkers. To be noted: 100 nM, CHES pH 10.0, different linkers. The protocol: The tissue was deparaffinized and retrieved as described in the general procedures. Mouse-anti-Bcl-2 antibody incubation (37° C., 16 minutes) and washing were followed by secondary antibody incubation with a goat polyclonal anti-mouse antibody conjugated to AP (37° C.; 12 minutes). After incubating with the AP conjugate the slides were washed with Special Stains wash. Monofluoro QMP-biotin (with aniline amide (FIG. 23(A)), benzoic amide (FIG. 23(B)) or tyramide amide linker (FIG. 23(C)) (100 nM) was dissolved in 100 mM CHES, pH 10.0, 0.05% Brij-35 to a final concentration of 100 nM. QMP turnover was achieved by adding 100 μL of AP Enhancer followed by 100 μL of biotin labeled QMP and incubating at 37° C. for 16 minutes. The deposited biotin was subsequently bound by a streptavidin-HRP conjugate (37° C.; 8 minutes), and visualized via a brown precipitate produced by HRP upon the addition of hydrogen peroxide and DAB (37° C.; 8 minutes). The DAB was toned by the addition of copper sulfate (37° C.; 4 minutes). The stained tissue sections were counterstained with modified Mayer's hematoxylin (37° C.; 4 minutes) and then incubated with Bluing Reagent (37° C.; 4 minutes). They were then dehydrated through a graded ethanol series, cleared with xylene, and manually cover-slipped.

Results on three compounds are retold here after patent US12215118B2, “Quinone methide analog signal amplification” (Ventana Medical Systems, Inc., priority 2014, dated 2025).

For `O=C(CCCCC1SCC2NC(=O)NC21)NCCCCCC(=O)Nc1ccc(OP(=O)(O)O)c(CF)c1` (centres unmarked) [Compound 7, 2-(fluoromethyl)-4-(6-(5-(2-oxohexahydro-1H-thieno[3,4-d]imidazol-4-yl)pentanamido)hexanamido)phenyl dihydrogen phosphate], the “time to complete conversion to the Tris adduct” value in data set [1] (catalytic amount of AP) is at most 10 min. For the same compound, in data set [1] (no AP), the “reaction in the absence of AP” value was “no reaction took place”. Further, the “diffusion and off-target staining” value in data set [2] (250 nM, Tris buffer, pH of 10) is given as “nearly eliminated”. In data set [2] (pH 8.5 in Tris buffer), the “concentration required to give the desired level of amplification” value is 250 nM and the “overall diffusion compared to difluoro QM precursor 58” value is on record as “greatly reduced”. In addition, in data set [3], the signal resolution entry is “well resolved signals”.
For `O=C(CCCCC1SCC2NC(=O)NC21)NCCc1ccc(OP(=O)(O)O)c(CF)c1` (centres unmarked) [Compound 14, 2-(fluoromethyl)-4-(2-(5-(2-oxohexahydro-1H-thieno[3,4-d]imidazol-4-yl)pentanamido)ethyl)phenyl dihydrogen phosphate], the signal resolution result in data set [3] is listed as “well resolved signals”.
Regarding `O=C(CCCCC1SCC2NC(=O)NC21)NCCCCCNC(=O)c1ccc(OP(=O)(O)O)c(CF)c1` (centres unmarked) [Compound 21, 2-(fluoromethyl)-4-((5-(5-(2-oxohexahydro-1H-thieno[3,4-d]imidazol-4-yl)pentanamido)pentyl)carbamoyl)phenyl dihydrogen phosphate], in data set [3], the signal resolution result was “more diffuse, less resolved signal”.
